Measurements taken from ChEMBL document CHEMBL5724914, “Linking interpersonal differences in gut microbiota composition and drug biotransformation activity” (2024).

Conditions: human gut metagenome, 24 h, 2 µM
Note: call rule not given here.

Bacterial Biotransformation | SMILES
Compound NOT metabolized | CCOc1ccc2nc(S(N)(=O)=O)sc2c1 [ETHOXZOLAMIDE]
Compound metabolized | CCc1cccc2c3c([nH]c12)C(CC)(CC(=O)O)OCC3 (stereo not given) [ETODOLAC]
Compound metabolized | CC(=O)OCC(CCn1cnc2cnc(N)nc21)COC(C)=O [FAMCICLOVIR]
Compound metabolized | CC(C)(C)NC(=O)[C@H]1CC[C@H]2[C@@H]3CC[C@H]4NC(=O)C=C[C@]4(C)[C@H]3CC[C@]12C [FINASTERIDE]

Test: (§1) The drug is tested on Z-029 corresponding to rat gut metagenome with ENA study accession number: PRJEB37062 and ENA sample accession number: ERS12561828 for biotransformation under anaerobic condition. The drug concentrations were measured over 9 timepoints collected between 0 and 24 hours of incubation by liquid-chromatography-coupled mass spectrometry (LC–MS)
Conditions: 2 µM

Bacterial Biotransformation | SMILES
Compound NOT metabolized | CCOc1ccc2nc(S(N)(=O)=O)sc2c1 [ETHOXZOLAMIDE]
Compound NOT metabolized | CCc1cccc2c3c([nH]c12)C(CC)(CC(=O)O)OCC3 (stereo not given) [ETODOLAC]
Compound NOT metabolized | CC(=O)OCC(CCn1cnc2cnc(N)nc21)COC(C)=O [FAMCICLOVIR]
Compound NOT metabolized | CC(C)(C)NC(=O)[C@H]1CC[C@H]2[C@@H]3CC[C@H]4NC(=O)C=C[C@]4(C)[C@H]3CC[C@]12C [FINASTERIDE]

Test: as §1, with “on Z-002” for “on Z-029”, “to rabbit” for “to rat”, “number: ERS12561802” for “number: ERS12561828”
Conditions: 2 µM

Bacterial Biotransformation | SMILES
Compound NOT metabolized | CCOc1ccc2nc(S(N)(=O)=O)sc2c1 [ETHOXZOLAMIDE]
Compound NOT metabolized | CCc1cccc2c3c([nH]c12)C(CC)(CC(=O)O)OCC3 (stereo not given) [ETODOLAC]
Compound metabolized | CC(=O)OCC(CCn1cnc2cnc(N)nc21)COC(C)=O [FAMCICLOVIR]
Compound metabolized | CC(C)(C)NC(=O)[C@H]1CC[C@H]2[C@@H]3CC[C@H]4NC(=O)C=C[C@]4(C)[C@H]3CC[C@]12C [FINASTERIDE]

Conditions: human gut metagenome, 24 h, 2 µM
Remark: another data set of the same source

Bacterial Biotransformation | SMILES
Compound metabolized | CCOc1ccc2nc(S(N)(=O)=O)sc2c1 [ETHOXZOLAMIDE]
Compound metabolized | CCc1cccc2c3c([nH]c12)C(CC)(CC(=O)O)OCC3 (stereo not given) [ETODOLAC]
Compound metabolized | CC(=O)OCC(CCn1cnc2cnc(N)nc21)COC(C)=O [FAMCICLOVIR]
Compound metabolized | CC(C)(C)NC(=O)[C@H]1CC[C@H]2[C@@H]3CC[C@H]4NC(=O)C=C[C@]4(C)[C@H]3CC[C@]12C [FINASTERIDE]

Conditions: human gut metagenome, 24 h, 2 µM
Remark: another data set of the same source

Bacterial Biotransformation | SMILES
Compound NOT metabolized | CCOc1ccc2nc(S(N)(=O)=O)sc2c1 [ETHOXZOLAMIDE]
Compound NOT metabolized | CCc1cccc2c3c([nH]c12)C(CC)(CC(=O)O)OCC3 (stereo not given) [ETODOLAC]
Compound metabolized | CC(=O)OCC(CCn1cnc2cnc(N)nc21)COC(C)=O [FAMCICLOVIR]
Compound metabolized | CC(C)(C)NC(=O)[C@H]1CC[C@H]2[C@@H]3CC[C@H]4NC(=O)C=C[C@]4(C)[C@H]3CC[C@]12C [FINASTERIDE]

Test: as §1, with “on WLS-098” for “on Z-029”, “to human” for “to rat”, “number: ERS12561754” for “number: ERS12561828”
Conditions: 2 µM

Bacterial Biotransformation | SMILES
Compound metabolized | CCOc1ccc2nc(S(N)(=O)=O)sc2c1 [ETHOXZOLAMIDE]
Compound metabolized | CCc1cccc2c3c([nH]c12)C(CC)(CC(=O)O)OCC3 (stereo not given) [ETODOLAC]
Compound metabolized | CC(=O)OCC(CCn1cnc2cnc(N)nc21)COC(C)=O [FAMCICLOVIR]
Compound metabolized | CC(C)(C)NC(=O)[C@H]1CC[C@H]2[C@@H]3CC[C@H]4NC(=O)C=C[C@]4(C)[C@H]3CC[C@]12C [FINASTERIDE]

Test: as §1, with “on Z-016” for “on Z-029”, “to mouse” for “to rat”, “number: ERS12561815” for “number: ERS12561828”
Conditions: 2 µM

Bacterial Biotransformation | SMILES
Compound NOT metabolized | CCOc1ccc2nc(S(N)(=O)=O)sc2c1 [ETHOXZOLAMIDE]
Compound NOT metabolized | CCc1cccc2c3c([nH]c12)C(CC)(CC(=O)O)OCC3 (stereo not given) [ETODOLAC]
Compound NOT metabolized | CC(=O)OCC(CCn1cnc2cnc(N)nc21)COC(C)=O [FAMCICLOVIR]
Compound metabolized | CC(C)(C)NC(=O)[C@H]1CC[C@H]2[C@@H]3CC[C@H]4NC(=O)C=C[C@]4(C)[C@H]3CC[C@]12C [FINASTERIDE]

Test: as §1, with “Z-027” for “Z-029”, “to” for “to rat gut”, “ERS12561826” for “ERS12561828”
Conditions: 2 µM

Bacterial Biotransformation | SMILES
Compound NOT metabolized | CCOc1ccc2nc(S(N)(=O)=O)sc2c1 [ETHOXZOLAMIDE]
Compound NOT metabolized | CCc1cccc2c3c([nH]c12)C(CC)(CC(=O)O)OCC3 (stereo not given) [ETODOLAC]
Compound NOT metabolized | CC(=O)OCC(CCn1cnc2cnc(N)nc21)COC(C)=O [FAMCICLOVIR]
Compound metabolized | CC(C)(C)NC(=O)[C@H]1CC[C@H]2[C@@H]3CC[C@H]4NC(=O)C=C[C@]4(C)[C@H]3CC[C@]12C [FINASTERIDE]

Conditions: human gut metagenome, 24 h, 2 µM
Remark: another data set of the same source

Bacterial Biotransformation | SMILES
Compound NOT metabolized | CCOc1ccc2nc(S(N)(=O)=O)sc2c1 [ETHOXZOLAMIDE]
Compound metabolized | CCc1cccc2c3c([nH]c12)C(CC)(CC(=O)O)OCC3 (stereo not given) [ETODOLAC]
Compound metabolized | CC(=O)OCC(CCn1cnc2cnc(N)nc21)COC(C)=O [FAMCICLOVIR]
Compound metabolized | CC(C)(C)NC(=O)[C@H]1CC[C@H]2[C@@H]3CC[C@H]4NC(=O)C=C[C@]4(C)[C@H]3CC[C@]12C [FINASTERIDE]

Conditions: human gut metagenome, 24 h, 2 µM
Remark: another data set of the same source

Bacterial Biotransformation | SMILES
Compound metabolized | CCOc1ccc2nc(S(N)(=O)=O)sc2c1 [ETHOXZOLAMIDE]
Compound metabolized | CCc1cccc2c3c([nH]c12)C(CC)(CC(=O)O)OCC3 (stereo not given) [ETODOLAC]
Compound metabolized | CC(=O)OCC(CCn1cnc2cnc(N)nc21)COC(C)=O [FAMCICLOVIR]
Compound metabolized | CC(C)(C)NC(=O)[C@H]1CC[C@H]2[C@@H]3CC[C@H]4NC(=O)C=C[C@]4(C)[C@H]3CC[C@]12C [FINASTERIDE]

Test: as §1, with “on WLS-240” for “on Z-029”, “to human” for “to rat”, “number: ERS12561773” for “number: ERS12561828”
Conditions: 2 µM

Bacterial Biotransformation | SMILES
Compound NOT metabolized | CCOc1ccc2nc(S(N)(=O)=O)sc2c1 [ETHOXZOLAMIDE]
Compound metabolized | CCc1cccc2c3c([nH]c12)C(CC)(CC(=O)O)OCC3 (stereo not given) [ETODOLAC]
Compound metabolized | CC(=O)OCC(CCn1cnc2cnc(N)nc21)COC(C)=O [FAMCICLOVIR]
Compound metabolized | CC(C)(C)NC(=O)[C@H]1CC[C@H]2[C@@H]3CC[C@H]4NC(=O)C=C[C@]4(C)[C@H]3CC[C@]12C [FINASTERIDE]

Test: as §1, with “on Z-024” for “on Z-029”, “to pig” for “to rat”, “number: ERS12561823” for “number: ERS12561828”
Conditions: 2 µM

Bacterial Biotransformation | SMILES
Compound NOT metabolized | CCOc1ccc2nc(S(N)(=O)=O)sc2c1 [ETHOXZOLAMIDE]
Compound NOT metabolized | CCc1cccc2c3c([nH]c12)C(CC)(CC(=O)O)OCC3 (stereo not given) [ETODOLAC]
Compound metabolized | CC(=O)OCC(CCn1cnc2cnc(N)nc21)COC(C)=O [FAMCICLOVIR]
Compound metabolized | CC(C)(C)NC(=O)[C@H]1CC[C@H]2[C@@H]3CC[C@H]4NC(=O)C=C[C@]4(C)[C@H]3CC[C@]12C [FINASTERIDE]

Conditions: human gut metagenome, 24 h, 2 µM
Remark: another data set of the same source

Bacterial Biotransformation | SMILES
Compound NOT metabolized | CCOc1ccc2nc(S(N)(=O)=O)sc2c1 [ETHOXZOLAMIDE]
Compound NOT metabolized | CCc1cccc2c3c([nH]c12)C(CC)(CC(=O)O)OCC3 (stereo not given) [ETODOLAC]
Compound metabolized | CC(=O)OCC(CCn1cnc2cnc(N)nc21)COC(C)=O [FAMCICLOVIR]
Compound metabolized | CC(C)(C)NC(=O)[C@H]1CC[C@H]2[C@@H]3CC[C@H]4NC(=O)C=C[C@]4(C)[C@H]3CC[C@]12C [FINASTERIDE]

Test: as §1, with “on WLS-069” for “on Z-029”, “to human” for “to rat”, “number: ERS12561748” for “number: ERS12561828”
Conditions: 2 µM

Bacterial Biotransformation | SMILES
Compound NOT metabolized | CCOc1ccc2nc(S(N)(=O)=O)sc2c1 [ETHOXZOLAMIDE]
Compound metabolized | CCc1cccc2c3c([nH]c12)C(CC)(CC(=O)O)OCC3 (stereo not given) [ETODOLAC]
Compound metabolized | CC(=O)OCC(CCn1cnc2cnc(N)nc21)COC(C)=O [FAMCICLOVIR]
Compound metabolized | CC(C)(C)NC(=O)[C@H]1CC[C@H]2[C@@H]3CC[C@H]4NC(=O)C=C[C@]4(C)[C@H]3CC[C@]12C [FINASTERIDE]

Conditions: human gut metagenome, 24 h, 2 µM
Remark: another data set of the same source

Bacterial Biotransformation | SMILES
Compound NOT metabolized | CCOc1ccc2nc(S(N)(=O)=O)sc2c1 [ETHOXZOLAMIDE]
Compound metabolized | CCc1cccc2c3c([nH]c12)C(CC)(CC(=O)O)OCC3 (stereo not given) [ETODOLAC]
Compound metabolized | CC(=O)OCC(CCn1cnc2cnc(N)nc21)COC(C)=O [FAMCICLOVIR]
Compound metabolized | CC(C)(C)NC(=O)[C@H]1CC[C@H]2[C@@H]3CC[C@H]4NC(=O)C=C[C@]4(C)[C@H]3CC[C@]12C [FINASTERIDE]

Test: as §1, with “Z-012” for “Z-029”, “to” for “to rat gut”, “ERS12561812” for “ERS12561828”
Conditions: 2 µM

Bacterial Biotransformation | SMILES
Compound NOT metabolized | CCOc1ccc2nc(S(N)(=O)=O)sc2c1 [ETHOXZOLAMIDE]
Compound NOT metabolized | CCc1cccc2c3c([nH]c12)C(CC)(CC(=O)O)OCC3 (stereo not given) [ETODOLAC]
Compound NOT metabolized | CC(=O)OCC(CCn1cnc2cnc(N)nc21)COC(C)=O [FAMCICLOVIR]
Compound metabolized | CC(C)(C)NC(=O)[C@H]1CC[C@H]2[C@@H]3CC[C@H]4NC(=O)C=C[C@]4(C)[C@H]3CC[C@]12C [FINASTERIDE]

Conditions: human gut metagenome, 24 h, 2 µM
Remark: another data set of the same source

Bacterial Biotransformation | SMILES
Compound NOT metabolized | CCOc1ccc2nc(S(N)(=O)=O)sc2c1 [ETHOXZOLAMIDE]
Compound NOT metabolized | CCc1cccc2c3c([nH]c12)C(CC)(CC(=O)O)OCC3 (stereo not given) [ETODOLAC]
Compound metabolized | CC(=O)OCC(CCn1cnc2cnc(N)nc21)COC(C)=O [FAMCICLOVIR]
Compound metabolized | CC(C)(C)NC(=O)[C@H]1CC[C@H]2[C@@H]3CC[C@H]4NC(=O)C=C[C@]4(C)[C@H]3CC[C@]12C [FINASTERIDE]

Test: as §1, with “on Z-011” for “on Z-029”, “to mouse” for “to rat”, “number: ERS12561811” for “number: ERS12561828”
Conditions: 2 µM

Bacterial Biotransformation | SMILES
Compound NOT metabolized | CCOc1ccc2nc(S(N)(=O)=O)sc2c1 [ETHOXZOLAMIDE]
Compound NOT metabolized | CCc1cccc2c3c([nH]c12)C(CC)(CC(=O)O)OCC3 (stereo not given) [ETODOLAC]
Compound metabolized | CC(=O)OCC(CCn1cnc2cnc(N)nc21)COC(C)=O [FAMCICLOVIR]
Compound metabolized | CC(C)(C)NC(=O)[C@H]1CC[C@H]2[C@@H]3CC[C@H]4NC(=O)C=C[C@]4(C)[C@H]3CC[C@]12C [FINASTERIDE]

Test: as §1, with “on WLS-038” for “on Z-029”, “to human” for “to rat”, “number: ERS12561745” for “number: ERS12561828”
Conditions: 2 µM

Bacterial Biotransformation | SMILES
Compound NOT metabolized | CCOc1ccc2nc(S(N)(=O)=O)sc2c1 [ETHOXZOLAMIDE]
Compound metabolized | CCc1cccc2c3c([nH]c12)C(CC)(CC(=O)O)OCC3 (stereo not given) [ETODOLAC]
Compound metabolized | CC(=O)OCC(CCn1cnc2cnc(N)nc21)COC(C)=O [FAMCICLOVIR]
Compound metabolized | CC(C)(C)NC(=O)[C@H]1CC[C@H]2[C@@H]3CC[C@H]4NC(=O)C=C[C@]4(C)[C@H]3CC[C@]12C [FINASTERIDE]

Conditions: human gut metagenome, 24 h, 2 µM
Remark: another data set of the same source

Bacterial Biotransformation | SMILES
Compound NOT metabolized | CCOc1ccc2nc(S(N)(=O)=O)sc2c1 [ETHOXZOLAMIDE]
Compound metabolized | CCc1cccc2c3c([nH]c12)C(CC)(CC(=O)O)OCC3 (stereo not given) [ETODOLAC]
Compound metabolized | CC(=O)OCC(CCn1cnc2cnc(N)nc21)COC(C)=O [FAMCICLOVIR]
Compound metabolized | CC(C)(C)NC(=O)[C@H]1CC[C@H]2[C@@H]3CC[C@H]4NC(=O)C=C[C@]4(C)[C@H]3CC[C@]12C [FINASTERIDE]
